Assay results reported in publication PMC7743076 (bioRxiv, 2021).
Where a name gives a salt, the structure may show the parent alone. Read-outs that look alike come from different tables or passages of the source.

How the values were obtained:
[1] = system: SARS-2-PV bearing spike from ancestral strain Wuhan-1, entry into 293T-ACE2-TMPRSS2 cells; format: cell-based, SARS-CoV-2; details: for IC50: read-out: IC50, PV entry efficiency
[2] = cited from earlier work; for pKa: ref published literature and PubChem
[3] = system: authentic SARS-CoV-2 (Wuhan-1) in Vero E6-TMPRSS2 cells; format: cell-based
[4] = system: SARS-CoV-2 (isolate USA-WA1/2020 or Wuhan-1); parameters: species or system Syrian hamsters (Mesocricetus auratus); details: hamster, in vivo
[5] = system: SARS-CoV-2 (Wuhan-1) infection in Vero E6 cells; assay: Authentic SARS-CoV-2; format: cell-based; details: preliminary dose ranging
[6] = 120 mg/kg IP, mice; cited from earlier work
[7] = drug with two pKa values printed

NCCCNCCSP(=O)(O)O [Amifostine]
Inhibition of SARS-2-PV entry (in words) [1]: did not inhibit virus entry

CC(C)(S)C(=O)N[C@@H](CS)C(=O)O [Bucillamine]
pKa [2, 7]: 10.2
pKa ([2]; thiol pKa): 8.4

N[C@@H](CSCC(=O)O)C(=O)O [Carbocysteine]
Virus-induced cytopathic effects (in words) [3]: not effective
Inhibition of SARS-2-PV entry (in words) [1]: did not inhibit virus entry

NCCS [Cysteamine]
pKa ([2]; thiol pKa): 8.2
Virus-induced cytopathic effects (in words) [3]: significantly decreased virus-induced cytopathic effects
IC50 [1]: ~1 mM
Alveolar hemorrhage scores [4]: significantly lower than in the control group
Histopathology scores for mixed cell lung inflammation [4]: significantly lower than in the control group
Lung weights (normalized to terminal body weights) [4]: significantly lower than in the control group
Lymphocytes in BAL [4]: decreases
Neutrophils in BAL [4]: decreases
Total cell counts in BAL [4]: lower than in control treated animals
Total protein in BAL [4]: lower
Viral N2 gene transcripts in lung tissue [4]: not significantly lower than in controls
Virus-induced cytopathic effects (in words) [5]: very effective at decreasing virus-induced cytopathic effects

O=S(=O)(O)CCS [Mesna, 2-mercaptoethane sulfonate, sodium salt]
pKa ([2]; thiol pKa): > 9

O=C(O)[C@@H](S)[C@@H](S)C(=O)O [Succimer, Dimercaptosuccinic acid]
pKa [2, 7]: 10.8
pKa ([2]; thiol pKa): 8.9

CO[C@H]1O[C@H](CS)[C@H](O)[C@H](O)[C@H]1O [TDG, methyl 6-thio-6-deoxy-α-D-galactopyranoside]
reported pKa ([2]; TDG, thiol pKa, reported, reference not given): 9.6

NCCCNCCS [WR-1065]
IC50 [1]: ~1 mM
Virus-induced cytopathic effects (in words) [5]: very effective at decreasing virus-induced cytopathic effects

Cl.NCCS [cysteamine hydrochloride]
Peak plasma concentration [6]: 0.6 mM
Time of peak plasma concentration after administration [6]: ≤ 5 min
